Test results as given in US9925205B2, “Compositions of multicationic drugs for reducing interactions with polyanionic biomolecules and methods of use thereof” (Insmed Incorporated, priority 2007, dated 2018).
Several values for one entry are separate records, joined by “and”; a condition that tells them apart may be missing. Equal entries are not always repeated. Structures can show the parent of a compound that is named as a salt. Blank lines part the entries; values can stand above or below the molecule they belong to.

Tests used:
[1] = Effect of mono- and multi-protonic acid salts on binding of amikacin to alginate
Description: Various salts were tested for their ability to compete with alginate. Amikacin sulfate (0.1 mL of 1 mg/ml) was added to 0.4 mL solution of 1% Na Alginate and 0.5 mL solution of 200 mM Na salt of an Acid at pH 6.0. Samples were incubated 10 minutes at 37° C. and centrifuged in Centricon-10 for 30 minutes at 4000 rpm. Filtrate was diluted 2 fold with TDX buffer and analyzed for AMK.

[2] = Binding of amikacin to alginate in saline, free amikacin separated on Centricon-10 filter; conditions: for AMKAlg (bound amikacin, AMKt-AMKf) / AMKAlg/AMKf / AMKfree: saline, no citrate; for AMKfree: total amikacin 92.5 ug/mL
Description: (§1) The binding of a multicationic drug, such as amikacin, to alginate in presence salts of various (one-, two- and three-protonic) acids was tested. To study the effect of binding of amikacin to alginate, amikacin sulfate, Na citrate and Na alginate were mixed at different proportions and then free (unbound) amikacin was separated on a Cetricon-10 filtering device (MWCO 10 kD). In the absence of citrate, amikacin binds to alginate only, and the amikacin-alginate binding coefficient can be calculated from equation:
[formula] where bound amikacin can be found by subtracting free from total, and alginate free concentration is assumed to be equal to the total concentration due to excess of alginate over amikacin.
As alginate concentration increases, amikacin free measured in permeate decreases (Table 1). According to Equation 1 the ratio AMKAlg/AMKf should be proportional to the concentration of alginate, and the slope of this dependence should equal to the binding coefficient.
If one use a linear regression, the slope obtained gives us an estimate of the amikacin-alginate binding coefficient of PAlg=0.76 (mg/mL)^−1. This means that in presence of 1/PAlg˜1.3 mg/mL alginate approximately half of all amikacin will be bound to alginate.

[3] = Effect of pH on ability of citrate to compete with alginate for amikacin (Centricon-10, TDX); type: binding
[4] = Amikacin-citrate binding determined indirectly from competitive binding with alginate (Centricon filter); parameters: AMKAlg (AMKtot—AMKperm) / AMKfree / AMKcitrate: unit not given here
Description: as §1, with “equation: […]” for “equation:”
In the presence of citrate, amikacin can bind to both alginate and citrate. The amikacin-citrate complex is not large enough to be retained by Centricon filter and will be measured as “free” amikacin, which is actually a sum of free and citrate bound amikacin. For that reason amikacin-citrate binding can not be measured directly. It can, however, be determined indirectly from competitive binding, knowing amikacin-alginate binding coefficient PAlg.
Amikacin-citrate binding coefficient was Pcit=0.076 mM^−1. Thus in the presence of 1/Pcit˜13 mM citrate the concentration of amikacin bound to citrate is approximately equal to the concentration of free amikacin. As one can see from the above data, citrate can compete for amikacin with alginate thus reducing amount of amikacin bound to alginate. 1% Alginate can reduce AMK free concentration ˜7-fold. Citrate at 40 mM reduces this effect increasing unbound AMK ˜2.5 fold.

[5] = Effect of pH on ability of citrate to compete with alginate for amikacin (Centricon-10, TDX); type: binding; remark: listed apart in the source
Description: How pH affects the ability of citrate to compete with alginate for amikacin was also tested. Here 0.5 mL sodium alginate (2%) was mixed with 0.4 mL sodium citrate (200 mM) and 0.1 mL amikacin sulfate (1 mg/mL), giving corresponding final concentrations of 1%, 80 mM, and 100 ug/mL, respectively. Two controls using either alginate or citrate alone were employed. Samples were incubated for 10 minutes at 37° C. and unbound amikacin was separated by centrifuging in Centrico-10 device for 30 minutes at 4000 rpm. Amikacin in permeate was measured by TDX (Abbott) and presented as % of total (Table 3).

P. Aeruginosa PAC1 = experiment: In-vitro bioactivity of amikacin, modified disk Kirby-Bauer agar diffusion method; type: cell-based; conditions: for Zone size (mm): three values
Description: It has been shown elsewhere […] that amikacin-alginate binding can in fact reduce amikacin bioactivity against PA. One may ask whether binding to citrate will preserve bioactivity or inhibit it similar to alginate. In order to address this, activity of amikacin against P. Aeruginosa PAC1 using modified disk Kirby-Bauer agar diffusion method was tested. […] Absence of supplements was used as a control.
Activity was determined using modified disk Kirby-Bauer agar diffusion method and PAC1 PA strain.

[6] = 0.1 mL 1 mg/ml amikacin sulfate + 0.4 mL 1% Na Alginate + 0.5 mL 200 mM Na salt of the acid, pH 6.0, 10 minutes at 37° C.
[7] = alginate 6 mg/mL, citrate 60 mM
[8] = alginate 10 mg/mL, citrate 40 mM
[9] = alginate 14 mg/mL, citrate 20 mM
[10] = alginate 16 mg/mL, citrate 10 mM
[11] = Alginate 1%, 80 mM Citrate at pH 6-7

Molecule: CC(=O)[O-].[Na+] [Sodium acetate]
Amikacin not bound to alginate (%) [1, 6]: 11.2%
effect of the salt on unbound amikacin (in words) ([1]; as Table 4): not showing any increase in unbound amikacin

Amikacin not bound to alginate (%) [1, 6]: 72.1%
Molecule: O=C(O)CC(O)(CC(=O)O)C(=O)O [Sodium citrate]

Molecule: O=C([O-])CCCC(=O)[O-].[Na+].[Na+] [Sodium glutarate]
Amikacin not bound to alginate (%) [1, 6]: 36.7%
Amikacin not bound to alginate (%) ([1]; 0.1 mL 1 mg/ml amikacin sulfate + 0.4 mL 1% Na Alginate + 0.5 mL 200 mM Na salt of the acid, pH 6.0, 10 minutes at 37° C., listed as glutarate): ~40%

Molecule: O=C([O-])/C=C\C(=O)[O-].[Na+].[Na+] [Sodium maleate]
Amikacin not bound to alginate (%) [1, 6]: 39.4%
Amikacin not bound to alginate (%) ([1]; 0.1 mL 1 mg/ml amikacin sulfate + 0.4 mL 1% Na Alginate + 0.5 mL 200 mM Na salt of the acid, pH 6.0, 10 minutes at 37° C., listed as maleate): ~40%

Amikacin not bound to alginate (%) [1, 6]: 40.2%
Amikacin not bound to alginate (%) ([1]; 0.1 mL 1 mg/ml amikacin sulfate + 0.4 mL 1% Na Alginate + 0.5 mL 200 mM Na salt of the acid, pH 6.0, 10 minutes at 37° C., listed as succinate): ~40%
Molecule: O=C([O-])CCC(=O)[O-].[Na+].[Na+] [Sodium succinate]

1/PAlg, alginate concentration at which approximately half of all amikacin is bound to alginate [2]: ~1.3 mg/mL
reduction of AMK free concentration by alginate ([2]; 1% Alginate): ~7 fold
AMKAlg (bound amikacin, AMKt-AMKf) ([2]; alginate 0 mg/mL): 0 µg/mL
AMKAlg/AMKf ([2]; alginate 0 mg/mL): 0
AMKfree ([2]; alginate 0 mg/mL): 92.5 µg/mL
AMKAlg (bound amikacin, AMKt-AMKf) ([2]; alginate 6 mg/mL): 72.5 µg/mL
AMKAlg/AMKf ([2]; alginate 6 mg/mL): 3.63
AMKfree ([2]; alginate 6 mg/mL): 20 µg/mL
AMKAlg (bound amikacin, AMKt-AMKf) ([2]; alginate 10 mg/mL): 79.9 µg/mL
AMKAlg/AMKf ([2]; alginate 10 mg/mL): 6.34
AMKfree ([2]; alginate 10 mg/mL): 12.6 µg/mL
AMKAlg (bound amikacin, AMKt-AMKf) ([2]; alginate 14 mg/mL): 84.5 µg/mL
AMKAlg/AMKf ([2]; alginate 14 mg/mL): 10.56
AMKfree ([2]; alginate 14 mg/mL): 8 µg/mL
AMKAlg (bound amikacin, AMKt-AMKf) ([2]; alginate 16 mg/mL): 86 µg/mL
AMKAlg/AMKf ([2]; alginate 16 mg/mL): 13.23
AMKfree ([2]; alginate 16 mg/mL): 6.5 µg/mL
PAlg AMK-Alginate binding coefficient ([2]; slope of AMKAlg/AMKf vs alginate concentration, linear regression): 0.76 (mg/ml)^−1
Amikacin not bound to alginate (%) ([1]; Control (no acid salt named)): 17.7%
Alginate binding efficiency ([3]; no citrate, total amikacin 0.5 mg/mL): 85.5%
1/Pcit, citrate concentration at which amikacin bound to citrate approximately equals free amikacin [4]: ~13 mM
increase of unbound AMK by citrate ([4]; Citrate at 40 mM, 1% Alginate): ~2.5 fold
AMKAlg (AMKtot—AMKperm) ([4]; alginate 0 mg/mL, citrate 0 mM): 0
AMKcit/AMKf ([4]; alginate 0 mg/mL, citrate 0 mM): 0
AMKcitrate ([4]; alginate 0 mg/mL, citrate 0 mM): 0
AMKfree ([4]; alginate 0 mg/mL, citrate 0 mM): 92.5
AMKperm ([4]; alginate 0 mg/mL, citrate 0 mM): 92.5 µg/mL
AMKAlg (AMKtot—AMKperm) [4, 7]: 40.9
AMKcit/AMKf [4, 7]: 4.72
AMKcitrate [4, 7]: 42.59
AMKfree [4, 7]: 9.01
AMKperm [4, 7]: 51.6 µg/mL
AMKAlg (AMKtot—AMKperm) [4, 8]: 60.5
AMKcit/AMKf [4, 8]: 3.00
AMKcitrate [4, 8]: 24.00
AMKfree [4, 8]: 8.00
AMKperm [4, 8]: 32.0 µg/mL
AMKAlg (AMKtot—AMKperm) [4, 9]: 77
AMKcit/AMKf [4, 9]: 1.13
AMKcitrate [4, 9]: 8.23
AMKfree [4, 9]: 7.27
AMKperm [4, 9]: 15.5 µg/mL
AMKAlg (AMKtot—AMKperm) [4, 10]: 82.4
AMKcit/AMKf [4, 10]: 0.48
AMKcitrate [4, 10]: 3.29
AMKfree [4, 10]: 6.81
AMKperm [4, 10]: 10.1 µg/mL
Pcit AMK-Citrate binding coefficient ([4]; slope of AMKcit/AMKf vs citrate concentration): 0.076 mM⁻¹
AMK binding to alginate [5, 11]: ~30%
Molecule: NCC[C@H](O)C(=O)N[C@@H]1C[C@H](N)[C@@H](O[C@H]2O[C@H](CN)[C@@H](O)[C@H](O)[C@H]2O)[C@H](O)[C@H]1O[C@H]1O[C@H](CO)[C@@H](O)[C@H](N)[C@H]1O [amikacin]
Amikacin not bound to alginate (%) ([3]; Alg, no Citrate, AMK 0.5 mg/mL): 14.5%
binding capacity of alginate [5]: at least 0.05 mg amikacin per mg alginate
Amikacin not bound to alginate (%) ([5]; Alg + Citrate pH 5, alginate 1%, citrate 80 mM, amikacin 100 ug/mL): 56.4%
Amikacin not bound to alginate (%) ([5]; Alg + Citrate pH 6, alginate 1%, citrate 80 mM, amikacin 100 ug/mL): 70.4%
Amikacin not bound to alginate (%) ([5]; Alg + Citrate pH 7, alginate 1%, citrate 80 mM, amikacin 100 ug/mL): 68.1%
Amikacin not bound to alginate (%) ([5]; Alg, no Citrate, alginate 1%, amikacin 100 ug/mL): 11.9%
Amikacin not bound to alginate (%) ([5]; Alg, no Citrate, alginate 1%, amikacin 100 ug/mL, listed as AMK): 12%
unbound AMK [5, 11]: ~70%
AMK bound by alginate ([5]; Alginate 1%, absence of citrate): ~88%
Amikacin not bound to alginate (%) ([5]; Citrate, no Alginate): 100%
Zone size (mm) (P. Aeruginosa PAC1; Alginate 1%): 21 mm
Zone size (mm) (P. Aeruginosa PAC1; Alginate + Citrate): 28 mm and 29 mm
Zone size (mm) (P. Aeruginosa PAC1; Citrate 100 mM): 28 mm
effect on activity of amikacin (in words) (P. Aeruginosa PAC1; Citrate at concentration 100 mM): does not affect activity
Zone size (mm) (P. Aeruginosa PAC1; Control, MH medium without supplements): 28 mm and 29 mm
effect on activity of amikacin (in words) (P. Aeruginosa PAC1; both alginate and citrate present): citrate actually restored activity of amikacin

Molecule: Sodium tartarate
Amikacin not bound to alginate (%) [1, 6]: 41.4%
Amikacin not bound to alginate (%) ([1]; 0.1 mL 1 mg/ml amikacin sulfate + 0.4 mL 1% Na Alginate + 0.5 mL 200 mM Na salt of the acid, pH 6.0, 10 minutes at 37° C., listed as taratrate): ~40%
